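Grown in 96-well plates, cells were treated for 48 hours with each compound at five concentrations. Insufficient inhibition: endpoint recorded as highest concentration tested. Abbreviation: GI50, concentration required for 50% inhibition of growth. TGI: total growth inhibition.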
Experiments:
Assay in all cases: NCI anticancer screen, dose series, 48 h
[1] = test system: 786-0 renal
[2] = test system: BT-549 breast
[3] = test system: OVCAR-4 ovarian
[4] = test system: SK-MEL-2 melanoma
[5] = test system: HCT-116 colon
[6] = test system: ACHN renal
[7] = test system: K-562 leukemia
[8] = test system: HT29 colon
[9] = test system: MALME-3M melanoma
[10] = test system: DU-145 prostate
[11] = test system: RPMI-8226 leukemia
[12] = test system: M14 melanoma
[13] = test system: OVCAR-3 ovarian
[14] = test system: MDA-MB-231 breast
[15] = test system: SK-OV-3 ovarian
[16] = test system: HOP-62 NSCLC
[17] = test system: KM12 colon
[18] = test system: SF-268 CNS
[19] = test system: NCI-H460 lung
[20] = test system: MCF7 breast
[21] = test system: NCI-H23 lung
[22] = test system: MOLT-4 leukemia
[23] = test system: NCI/ADR-RES ovarian
[24] = test system: CCRF-CEM leukemia
[25] = test system: MDA-MB-435
[26] = test system: SW-620 colon
[27] = test system: SN12C renal
[28] = test system: HOP-92 NSCLC
[29] = test system: SK-MEL-5 melanoma
[30] = test system: IGROV1 ovarian
[31] = test system: OVCAR-5 ovarian
[32] = test system: TK-10 renal
[33] = test system: A549 NSCLC
[34] = test system: SF-295 CNS
[35] = test system: SNB-19 CNS
[36] = test system: HS 578T breast
[37] = test system: COLO 205 colon
[38] = test system: SF-539 CNS
[39] = test system: EKVX NSCLC
[40] = test system: UACC-62 melanoma
[41] = test system: A498 renal
[42] = test system: SNB-75 CNS
[43] = test system: LOX IMVI melanoma
[44] = test system: HCC-2998 colon
[45] = test system: UACC-257 melanoma
[46] = test system: NCI-H522 lung
[47] = test system: OVCAR-8 ovarian
[48] = test system: HCT-15 colon
[49] = test system: U251 CNS
[50] = test system: NCI-H226 lung
[51] = test system: SK-MEL-28 melanoma
[52] = test system: RXF 393 renal
[53] = test system: T-47D breast
[54] = test system: UO-31 renal
[55] = test system: PC-3 prostate
[56] = test system: HL-60(TB) leukemia
[57] = test system: CAKI-1 renal

## COc1c/c(=C2\C=c3ccccc3=N2)[nH]/c1=C\c1[nH]c(C)cc1C
[1]
  GI50: 48 nM
  TGI: 4210 nM
[2]
  GI50: 31.9 nM
  TGI: 31300 nM
[3]
  GI50: 63.8 nM
  TGI: 4830 nM
[4]
  GI50: 75.3 nM
  TGI: 2270 nM
[5]
  GI50: < 36.8 nM
  TGI: 1710 nM
[6]
  GI50: < 22.4 nM
  TGI: 2330 nM
[7]
  GI50: 68.5 nM
  TGI: 8330 nM
[8]
  GI50: < 10 nM
  TGI: > 100000 nM
[9]
  GI50: 32.8 nM
[10]
  GI50: 17.4 nM
  TGI: > 81400 nM
[11]
  GI50: < 15.1 nM
  TGI: 2900 nM
[12]
  GI50: 640 nM
  TGI: > 31900 nM
[13]
  GI50: < 10.9 nM
  TGI: 202 nM
[14]
  GI50: 11.7 nM
  TGI: 3870 nM
[15]
  GI50: 1540 nM
  TGI: > 88700 nM
[16]
  GI50: 468 nM
  TGI: 6870 nM
[17]
  GI50: 21.6 nM
  TGI: 10600 nM
[18]
  GI50: 63.1 nM
  TGI: 37700 nM
[19]
  GI50: 26.8 nM
  TGI: > 100000 nM
[20]
  GI50: 46.4 nM
  TGI: > 100000 nM
[21]
  GI50: 98.6 nM
  TGI: 7080 nM
[22]
  GI50: < 20.3 nM
[23]
  GI50: 170 nM
  TGI: > 55300 nM
[24]
  GI50: < 10 nM
  TGI: 6640 nM
[25]
  GI50: 13.6 nM
  TGI: 95.1 nM
[26]
  GI50: < 10 nM
  TGI: 51400 nM
[27]
  GI50: 78.2 nM
  TGI: 59500 nM
[28]
  GI50: 111 nM
  TGI: 1970 nM
[29]
  GI50: < 10.5 nM
  TGI: 35.2 nM
[30]
  GI50: 102 nM
  TGI: 17700 nM
[31]
  GI50: 250 nM
  TGI: > 56500 nM
[32]
  GI50: 106 nM
  TGI: 36700 nM
[33]
  GI50: 139 nM
  TGI: 19200 nM
[34]
  GI50: 34 nM
  TGI: 593 nM
[35]
  GI50: 2990 nM
  TGI: > 88700 nM
[36]
  GI50: 13.1 nM
  TGI: 433 nM
[37]
  GI50: 15.5 nM
  TGI: 13600 nM
[38]
  GI50: 46.6 nM
  TGI: 4190 nM
[39]
  GI50: 601 nM
  TGI: > 94400 nM
[40]
  GI50: 13.4 nM
  TGI: 26.8 nM
[41]
  GI50: 242 nM
  TGI: 7470 nM
[42]
  GI50: 175 nM
  TGI: 4190 nM
[43]
  GI50: < 10 nM
[44]
  GI50: 185 nM
  TGI: 33700 nM
[45]
  GI50: 628 nM
  TGI: 32700 nM
[46]
  GI50: 493 nM
  TGI: > 41900 nM
[47]
  GI50: 214 nM
  TGI: > 21800 nM
[48]
  GI50: < 22.5 nM
  TGI: 4330 nM
[49]
  GI50: < 33.7 nM
  TGI: 6280 nM
[50]
  GI50: 16500 nM
  TGI: > 100000 nM
[51]
  GI50: 103 nM
  TGI: 26300 nM
[52]
  GI50: 538 nM
  TGI: > 100000 nM
[53]
  GI50: < 21.1 nM
  TGI: 6050 nM
[54]
  GI50: < 10.6 nM
  TGI: 320 nM
[55]
  GI50: 120 nM
  TGI: 31300 nM
[56]
  GI50: < 16.7 nM
  TGI: 12800 nM
[57]
  GI50: < 10.3 nM
  TGI: 109 nM
